Source: paper PMC10012172, “Chimeric Peptidomimetic Antibiotic Efficiently Neutralizes Lipopolysaccharides (LPS) and Bacteria-Induced Activation of RAW Macrophages” (ACS Infectious Diseases, 2023)
Values after ≈ are worked out from the molar mass of the structure shown. Where a SMILES comes first, the peptide text is derived from it. Bridges are numbered along the chain shown (N, C = ends). Roman numbers before positions name the chains, in order. [ ]: non-standard residue; d: D form. Tle = CC(C)(C)[C@H](N)C(=O)O; dDab = NCC[C@@H](N)C(=O)O; hSer = N[C@@H](CCO)C(=O)O; Dab = NCC[C@H](N)C(=O)O

Tests used:
[1] = test system: RAW264.7 macrophages stimulated with treated P. aeruginosa; assay: Silent killing: stimulation of macrophages with nonviable bacteria (TNF-α ELISA); format: cell-based; details: bacteria 1 × 10^6 CFU/mL treated with 20 μM peptide 1 h at 37 °C, RAW264.7 2 h, three independent experiments
Procedure: Figure 7 (A) Determination of macrophage activation in response to viable and nonviable bacteria. P. aeruginosa was treated with gentamicin, heat treatment, CATH-2 (control), CPA, murepavadin, MHM, PMB, or PMBN (20 μM of each) and subsequently added to RAW264.7 macrophages. Production of TNF-α was measured using ELISA after 2 h of treatment. (B) Viability of P. aeruginosa after treatment was checked by plating on TSA plates. Data is plotted as the mean ± SEM of three independent experiments. Significant differences were determined by ordinary one-way ANOVA (Tukey’s multiple comparison test).
RAW264.7 cells were seeded (7.5 × 10^4 cells/well) as described above. P. aeruginosa (diluted to 1 × 10^6 CFU/mL in DMEM) was treated separately with heat (1 h at 90 °C), 1 mg/mL gentamicin (1 h at 37 °C), 20 μM CPA (1 h at 37 °C), 20 μM PMB (1 h at 37 °C), 20 μM murepavadin (1 h at 37 °C), 20 μM MHM (1 h at 37 °C), 20 μM CATH-2 (1 h at 37 °C), and DMEM only (untreated sample) (1 h at 4 °C). After treatment, the bacteria were added to the RAW264.7 cells for 2 h of incubation at 37 °C. After that, TNF-α production was determined in the supernatant by ELISA.

[2] = test system: E. coli O111:B4 LPS stimulated RAW264.7 macrophages; assay: IL-10 release ELISA in LPS stimulated macrophages; format: cell-based; details: 20 ng/mL E. coli O111:B4 LPS, 24 h
Procedure: (§1) Figure 4 Peptides modulation of cytokine expression in RAW264.7 cells stimulated with LPS. RAW macrophages were stimulated with 20 ng/mL E. coli LPS in the presence of different concentrations of peptide antibiotics. (A) TNF-α and (B) IL-10 release was measured by ELISA in duplicates. Shown are the mean ± SEM of three independent experiments.
(§2) RAW264.7 cells were seeded (5 × 10^4 cells/well) in a 96-well plate and left at 37 °C for overnight adherence. Then, cells were stimulated with […] types of LPS: 20 ng/mL LPS originating from E. coli O111:B4 (LPS-EB, InvivoGen), 50 ng/mL LPS from P. aeruginosa (PA-10 LPS, Sigma -Aldrich), and 5 ng/mL LPS from E. coli K-12 (LPS-EK, InvivoGen) in the presence of 0–5 μM peptides in DMEM for 24 h. After incubation, the nitrite content (corresponding to nitric oxide produced but quickly oxidized in watery solutions to nitrite) in the supernatant was measured using the Griess assay.[28]
(§3) A sandwich ELISA was used to measure TNF-α and IL-10 concentrations in the supernatant of the same treatment (24 h) used for nitrite measurement, using ELISA Duoset kits (R&D systems, Minneapolis, MN) according to the manufacturer’s protocol.

[3] = test system: E. coli K-12 LPS stimulated RAW264.7 macrophages; assay: Nitric oxide inhibition assay (Griess), E. coli K-12 LPS; format: cell-based; details: 0–5 μM peptide
Procedure: (§4) Figure 3 Nitric oxide inhibition in LPS stimulated RAW264.7 by peptide antibiotics. RAW264.7 cells were stimulated with smooth type LPSs (A) E. coli O111:B4 LPS and (B) P. aeruginosa LPS and rough type LPS (C) E. coli K-12 LPS in the presence of different concentrations of peptides: CPA, murepavadin, MHM, PMB, and PMBN. NO production was measured by Griess assay. Shown are the mean ± SEM of three independent experiments. (D) Schematic diagram of the general structure of lipopolysaccharides. It consists of three main subunits: lipid A, the core region, and the O-antigen. Lipid A and the core-region form rough (R)-type LPS. Lipid A, the core-region, and the O-antigen together form smooth (S)-type LPS.
as §2

[4] = test system: Pseudomonas aeruginosa (clinical isolate); format: cell-based; details: 3 h
Procedure: (§5) Figure 2 Determination of MBC values for (A) E. coli and (B) P. aeruginosa. Surviving bacterial colonies were detected after incubation with tested peptides for 3 h in MHB.
(§6) Bacterial strains used in this study were clinical isolates of Escherichia coli and Pseudomonas aeruginosa provided by Utrecht University Medical Center, Department of Medical Microbiology, Utrecht, The Netherlands. Both strains were cultured in Mueller Hinton broth (MHB) (Millipore, Sigma-Aldrich).
(§7) Logarithmic growth phase of an o/n bacterial culture was obtained by diluting it 1:100 in MHB and then incubating it for 3 h at 37 °C while shaking. After that, the OD620 of the bacterial suspension was measured and the bacterial solution was diluted to 2 × 10^6 colony forming units/mL (CFU/mL). Bacteria and peptides in MHB were mixed 1:1 (v/v) and incubated for 3 h at 37 °C in a polypropylene round-bottom 96 well-plate (Corning Costar, Glendale, AZ). Subsequently, 10-fold dilutions were made and plated out on Tryptone Soy Agar (TSA) plates and incubated for 24 h at 37 °C to count colonies.

[5] = test system: Escherichia coli (clinical isolate); format: cell-based
Procedure: as §5, §6, §7

E. coli O111:B4 LPS = assay: Isothermal titration calorimetry (ITC) of LPS binding; details: 30 μM peptide, 200 μM LPS in 50% PBS, 37 °C, representative of two measurements
Procedure: Figure 6 (A) Binding profile of LPS and the peptides using ITC. Binding signatures (ΔG, ΔH. and −TΔS) plotted for binding events of LPS with peptides. (B) Spectra of the interaction between LPS and peptides. Murepavadin, PMB, MHM, PMBN, and CPA (30 μM) were titrated against 200 μM E. coli O111:B4 LPS, and heat rates were recorded. Shown is a representative of two measurements.
ITC measurements were performed in a low volume NanoITC (TA Instruments-Waters LLC, New Castle, DE). Two hundred micromolar LPS (from E. coli O111:B4) was prepared in 50% PBS. Peptides of 30 μM concentration were prepared in identical buffer. Three hundred microliters of the peptide solution was added to the chamber (chamber volume is 169 μL, so the rest of the volume flows out and rests around the chamber), and 50 μL of LPS was added to the syringe. At 37 °C, 2 μL of LPS solution was injected into the chamber every 300 s, except the first injection, which consists of 0.96 μL. The experiments were performed at 37 °C while stirring at 300 rpm. The data was analyzed with the NanoAnalyze Software (TA Instruments, Asse, Belgium).

[6] = test system: P. aeruginosa 10 LPS stimulated RAW264.7 macrophages; assay: Nitric oxide inhibition assay (Griess), P. aeruginosa 10 LPS; format: cell-based; details: 0–5 μM peptide
Procedure: as §4, §2

[7] = test system: E. coli O111:B4 LPS stimulated RAW264.7 macrophages; assay: Nitric oxide inhibition assay (Griess), E. coli O111:B4 LPS; format: cell-based; details: 0–5 μM peptide
Procedure: as §4, §2

[8] = test system: E. coli O111:B4 LPS stimulated RAW264.7 macrophages; assay: TNF-α release ELISA in LPS stimulated macrophages; format: cell-based; details: 20 ng/mL E. coli O111:B4 LPS, 24 h
Procedure: as §1, §2, §3

CC(C)C[C@@H]1NC(=O)[C@@H](Cc2ccccc2)NC(=O)[C@H](CCN)NC(=O)[C@@H](NC(=O)[C@H](CCN)NC(=O)[C@@H](NC(=O)[C@H](CCN)NC(=O)CC[C@@H]2NC(=O)[C@H](CCN)NC(=O)[C@H](Cc3ccc(O)cc3)NC(=O)[C@H]([C@@H](C)O)NC(=O)[C@H](C(C)C)NC(=O)[C@@H]3CCCN3C(=O)[C@@H](C)NC(=O)[C@H](CO)NC(=O)[C@H](C)NC(=O)[C@H](C(C)(C)C)NC(=O)[C@H](CCO)NC(=O)[C@H](Cc3c[nH]c4ccccc34)NC(=O)[C@H](CCO)NC(=O)[C@@H](CCN)NC2=O)[C@@H](C)O)CCNC(=O)[C@H]([C@@H](C)O)NC(=O)[C@H](CCN)NC(=O)[C@H](CCN)NC1=O [CPA] (I: cyclo([dDab][hSer]W[hSer][Tle]AS[dA]PVTY[Dab]E) / II: [Dab]T[Dab][Dab][Dab][dF]L[Dab][Dab]T; amide I:14-II:N (inferred); lactam II:4-II:C (inferred); ring closure inferred)
macrophage activation (TNF-α) by peptide-treated P. aeruginosa compared to viable untreated bacteria [1]: significantly reduced immune response
inhibition of IL-10 release (in words) [2]: sharply decreased the TNF-α and IL-10 release by RAW264.7 macrophages at a concentration of 5 nM
concentration that neutralized E. coli K-12 LPS (nitric oxide production) ([3]; 5 ng/mL rough LPS, 24 h in DMEM, Griess assay): 5 µM
inhibition of LPS-induced nitric oxide production (in words) ([3]; rough E. coli K-12 LPS 5 ng/mL, 24 h): dose-dependently active
MBC (complete killing) against P. aeruginosa [4]: 2.5 µM (≈ 6.41 µg/mL)
decrease in viable E. coli ([5]; at 1.25 μM peptide, from starting density of 10^6 CFU/mL, 3 h in MHB): 2 log
MBC (complete killing) against E. coli ([5]; clinical isolate, 3 h): 10 µM (≈ 25.7 µg/mL)
Kd (E. coli O111:B4 LPS): 7.8 µM
concentration that almost completely neutralized P. aeruginosa 10 LPS (nitric oxide production) ([6]; 50 ng/mL LPS, 24 h in DMEM, Griess assay): 20 nM
inhibition of LPS-induced nitric oxide production (in words) ([6]; smooth P. aeruginosa 10 LPS 50 ng/mL, 24 h): dose-dependently active
concentration that completely neutralized E. coli O111:B4 LPS (nitric oxide production) ([7]; 20 ng/mL LPS, 24 h in DMEM, Griess assay): 20 nM
inhibition of LPS-induced nitric oxide production (in words) ([7]; smooth E. coli O111:B4 LPS 20 ng/mL, 24 h): dose-dependently active
inhibition of TNF-α release (in words) [8]: sharply decreased the TNF-α and IL-10 release by RAW264.7 macrophages at a concentration of 5 nM
